# Source: paper PMC6017924, “Mycobacterium tuberculosis H37Rv LpqG Protein Peptides Can Inhibit Mycobacterial Entry through Specific Interactions” (Molecules : A Journal of Synthetic Chemistry and Natural …, 2018)
# Where no end group is shown, it is not given here.
# Experiments:
# U937 cells = format: cell-based; details: MTT, 20 and 200 µM peptide in PBS, 2 h, 5 × 10^4 cells/well; data not shown
# Experimental: (§1) An MTT cell viability assay was used for evaluating LpqG peptides’ cytotoxic effect; it involved placing 5 × 10^4 cells/well for 2 h with 20 and 200 µM each peptide in PBS, using the afore-mentioned incubation conditions. Triton X-100 was used as cytotoxicity control; 10 µL MTT were then added for 12 h. The resulting formazan crystals were dissolved in SDS and absorbance read at 570 nm.
# A549 cells = format: cell-based; details: MTT, 20 and 200 µM peptide in PBS, 2 h, 5 × 10^4 cells/well; data not shown
# Experimental: as §1
sequence,measurement,setting,value
SGCDSHNSGSLGADPRQVTVY [compound 16661],cytotoxic effect on U937 cells,U937 cells,without having a cytotoxic effect
same,cytotoxicity on A549 cells,A549 cells,4%
